Experimental data taken from US20220315578A1, “BRD9 BIFUNCTIONAL DEGRADERS AND THEIR METHODS OF USE” (NOVARTIS AG, priority 2019, published 2022).

Biological target: T1, BRD9-GFP (Homo sapiens, UniProt Q9H8M2)
T1 construct: CHYSEL (2A cis-acting hydrolase element) remnant after GFP; mCherry is split off as a separate protein (C); expressed in transfected cells; host or cells: HEK293A cells (Invitrogen R70507), lentiviral transduction with pLenti6-BRD9-GFP-CHYSEL-mCherry, blasticidin selection
T1 sequence (Q9H8M2 1-597): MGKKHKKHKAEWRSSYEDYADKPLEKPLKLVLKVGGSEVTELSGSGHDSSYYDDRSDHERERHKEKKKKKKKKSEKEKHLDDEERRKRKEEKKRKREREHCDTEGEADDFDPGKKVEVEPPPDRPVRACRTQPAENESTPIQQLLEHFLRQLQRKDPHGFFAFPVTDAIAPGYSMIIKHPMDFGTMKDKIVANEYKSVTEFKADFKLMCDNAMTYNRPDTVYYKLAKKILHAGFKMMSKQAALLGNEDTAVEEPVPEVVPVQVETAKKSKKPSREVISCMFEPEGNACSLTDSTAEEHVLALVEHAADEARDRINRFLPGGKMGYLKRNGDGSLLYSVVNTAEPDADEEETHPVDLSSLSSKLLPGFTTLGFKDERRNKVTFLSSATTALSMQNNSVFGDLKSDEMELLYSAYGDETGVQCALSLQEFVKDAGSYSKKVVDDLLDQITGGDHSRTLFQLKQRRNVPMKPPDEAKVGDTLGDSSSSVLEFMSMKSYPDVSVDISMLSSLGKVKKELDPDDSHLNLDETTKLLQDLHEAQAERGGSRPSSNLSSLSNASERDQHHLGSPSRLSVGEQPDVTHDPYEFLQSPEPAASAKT
Assay: BRD9-GFP protein abundance flow cytometry assay in HEK293A cells
Assay type: cell-based
Conditions: HEK293A-BRD9-GFP-CHYSEL-mCherry cells; for BRD9 Deg Amax %: 24 h, % protein remaining at the concentration at which maximum degradation is seen; for DC50: 24 h at 37° C., 10-point 1:3 dilution, concentration at which 50% maximal degradation was observed
Procedure, shortened: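 HEK293A cells stably express bicistronic BRD9-GFP-CHYSEL-mCherry and received 24 h treatment at 37° C with a 10-point, 3-fold dilution series from […], in 0.1% DMSO and duplicate. Median GFP/mCherry ratio of 5,000 single cells by flow cytometry, normalized to mCherry-only cells (0%) and DMSO (100%), gave DC50 and Amax (% protein remaining).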

SMILES	BRD9 Deg Amax % [%]	DC50 [nM]
CCCCn1cc(-c2cc(F)c(CN3CCC(OC4CCN(C(=O)COc5ccc(C)c(N6CCC(=O)NC6=O)c5)CC4)CC3)c(F)c2)c2ccncc2c1=O [Compound E45, 1-(5-(2-(4-((1-(4-(2-butyl-1-oxo-1,2-dihydro-2,7-naphthyridin-4-yl)-2,6-difluorobenzyl)piperidin-4-yl)oxy)piperidin-1-yl)-2-oxoethoxy)-2-methylphenyl)dihydropyrimidine-2,4(1H,3H)-dione]	15.28	7
COc1cc(-c2cn(C)c(=O)c3cnccc23)c(OC)cc1CN1CCC(OC2CCN(C(=O)COc3ccc(N4CCC(=O)NC4=O)cc3)CC2)CC1 [Compound E46, 1-(4-(2-(4-((1-(2,5-dimethoxy-4-(2-methyl-1-oxo-1,2-dihydro-2,7-naphthyridin-4-yl)benzyl)piperidin-4-yl)oxy)piperidin-1-yl)-2-oxoethoxy)phenyl)dihydropyrimidine-2,4(1H,3H)-dione]	15.69	33
CCCCn1cc(-c2cc(OC)c(CCN3CC[C@@H](OC4CCN(C(=O)c5ccc(Cl)c(N6CCC(=O)NC6=O)c5)CC4)[C@H](F)C3)cc2OC)c2ccncc2c1=O [Compound E47, 1-(5-(4-(((3R,4R)-1-(4-(2-butyl-1-oxo-1,2-dihydro-2,7-naphthyridin-4-yl)-2,5-dimethoxyphenethyl)-3-fluoropiperidin-4-yl)oxy)piperidine-1-carbonyl)-2-chlorophenyl)dihydro-pyrimidine-2,4(1H,3H)-dione]	32.89	49
CCCn1cc(-c2cc(OC)c(CCN3CCN(CC4CCN(C(=O)c5ccc(Cl)c(N6CCC(=O)NC6=O)c5)CC4)CC3)c(OC)c2)c(C)c(C)c1=O [Compound E48, 1-(2-chloro-5-(4-((4-(4-(4,5-dimethyl-6-oxo-1-propyl-1,6-dihydropyridin-3-yl)-2,6-dimethoxyphenethyl)piperazin-1-yl)methyl)piperidine-1-carbonyl)phenyl)dihydropyrimidine-2,4(1H,3H)-dione]	15.41	2
CCCCn1cc(-c2cc(F)c(OC3CCN(CC4CCN(C(=O)c5ccc(OC)c(N6CCC(=O)NC6=O)c5)CC4)CC3)c(F)c2)c2ccncc2c1=O [Compound E49, 1-(5-(4-((4-(4-(2-butyl-1-oxo-1,2-dihydro-2,7-naphthyridin-4-yl)-2,6-difluorophenoxy)piperidin-1-yl)methyl)piperidine-1-carbonyl)-2-methoxyphenyl)dihydropyrimidine-2,4(1H,3H)-dione]	19.41	7
CCCCn1cc(-c2cc(OC)c(CCN3CCC(OC4CCN(C(=O)c5ccc(OC)c(N6CCC(=O)NC6=O)c5)CC4)CC3)c(OC)c2)c2ccncc2c1=O [Compound E50, 1-(5-(4-((1-(4-(2-butyl-1-oxo-1,2-dihydro-2,7-naphthyridin-4-yl)-2,6-dimethoxyphenethyl)-piperidin-4-yl)oxy)piperidine-1-carbonyl)-2-meth-oxyphenyl)dihydro-pyrimidine-2,4(1H,3H)-dione]	13.47	8

Results, then the compound that gave them:

BRD9 Deg Amax % [%]	DC50 [nM]	SMILES
11.66	7	CCCCn1cc(-c2cc(F)c(CN3CCC(OC4CCN(C(=O)c5ccc(OC)c(N6CCC(=O)NC6=O)c5)CC4)CC3)c(OC)c2)c2ccncc2c1=O [Compound E51, 1-(5-(4-((1-(4-(2-butyl-1-oxo-1,2-dihydro-2,7-naphthyridin-4-yl)-2-fluoro-6-methoxybenzyl)-piperidin-4-yl)oxy)piperidine-1-carbonyl)-2-meth-oxyphenyl)dihydro-pyrimidine-2,4(1H,3H)-dione]
14.99	4	CCCn1cc(-c2cc(F)c(CCN3CCC(OC4CCN(C(=O)c5ccc(Cl)c(N6CCC(=O)NC6=O)c5)CC4)CC3)c(OC)c2)c(C)c(C)c1=O [Compound E52, 1-(2-Chloro-5-(4-((1-(4-(4,5-dimethyl-6-oxo-1-propyl-1,6-dihydropyridin-3-yl)-2-fluoro-6-methoxyphenethyl)piperidin-4-yl)oxy)piperidine-1-carbonyl)phenyl)dihydropyrimidine-2,4(1H,3H)-dione]
16.11	4	CCCCn1cc(-c2cc(F)c(CCN3CCC(OC4CCN(C(=O)c5ccc(Cl)c(N6CCC(=O)NC6=O)c5)CC4)CC3)c(OC)c2)c2ccncc2c1=O [Compound E53, 1-(5-(4-((1-(4-(2-butyl-1-oxo-1,2-dihydro-2,7-naphthyridin-4-yl)-2-fluoro-6-methoxyphenethyl)-piperidin-4-yl)oxy)piperidine-1-carbonyl)-2-chlorophenyl)dihydro-pyrimidine-2,4(1H,3H)-dione]
18.33	4	CCCCn1cc(-c2ccc(CN3CCC(OC4CCN(C(=O)c5ccc(OC)c(N6CCC(=O)NC6=O)c5)CC4)CC3)c(F)c2)c2ccncc2c1=O [Compound E54, 1-(5-(4-((1-(4-(2-butyl-1-oxo-1,2-dihydro-2,7-naphthyridin-4-yl)-2-fluorobenzyl)piperidin-4-yl)oxy)piperidine-1-carbonyl)-2-methoxyphenyl)dihydropyrimidine-2,4(1H,3H)-dione]
18.12	5	CCCn1cc(-c2cc(OC)c(CCN3CC[C@@H](OC4CCN(C(=O)c5ccc(Cl)c(N6CCC(=O)NC6=O)c5)CC4)[C@H](F)C3)c(OC)c2)c(C)c(C)c1=O [Compound E55, 1-(2-chloro-5-(4-(((3R,4R)-1-(4-(4,5-dimethyl-6-oxo-1-propyl-1,6-dihydropyridin-3-yl)-2,6-dimethoxyphenethyl)-3-fluoropiperidin-4-yl)oxy)piperidine-1-carbonyl)phenyl)dihydropyrimidine-2,4(1H,3H)-dione]
19.65	1	CCCCn1cc(-c2cc(F)c(O[C@@H]3CCN(CC4CCN(C(=O)c5ccc(OC)c(N6CCC(=O)NC6=O)c5)CC4)C[C@H]3F)c(F)c2)c2ccncc2c1=O [Compound E56, 1-(5-(4-(((3R,4R)-4-(4-(2-butyl-1-oxo-1,2-dihydro-2,7-naphthyridin-4-yl)-2,6-difluorophenoxy)-3-fluoropiperidin-1-yl)methyl)piperidine-1-carbonyl)-2-methoxyphenyl)dihydropyrimidine-2,4(1H,3H)-dione]
